Source: publication PMC2811193, “Complementary Roles in Cancer Prevention: Protease Inhibitor Makes the Cancer Preventive Peptide Lunasin Bioavailable” (PLoS ONE, 2010)

Assays:
[1] = test system: DMBA-induced NIH3T3 cells; assay: Foci formation assay in DMBA-induced NIH3T3 cells; type: cell-based
Method: The foci formation assay was performed according to Reznikoff et al. NIH3T3 cells were obtained from American Type Culture Collection (ATCC) and cultured in RPMI 1640 medium supplemented with 10% fetal bovine serum (FBS) (Invitrogen, Carlsbad, CA, USA). Cells were plated at a density of 500 cells/well in 12-well plates, incubated overnight at 37°C and treated with lunasin or BBI for 4 hrs. Then, cells were treated with 1.5 µg/ml DMBA for 20 hrs. After washing with PBS, fresh medium was added. Peptides were added and medium was changed every week for 6 weeks. At the end of experiment, cells were washed with 0.9% NaCl, fixed with methanol, stained with Giemsa, and scored for transformed foci. The negative control was a set of cells receiving no DMBA, while the positive control consisted of cells induced by DMBA but without treatment.

[2] = Bioavailability of 3H-lunasin after oral gavage with LES in CD-1 mice; type: in vivo
Method: Bioavailability studies in mice were done at North View Pacific Laboratories (Hercules, CA, USA), according with the Animal Care and Use Committee (ACUC) human guidelines. CD-1 mice (3-5 weeks old) were purchased from Jackson Laboratories (Bar Harbor, ME, USA) and conditioned on AIN76A diet for one week. Forty mice (20 male and 20 female) were fasted for 8 hrs before oral administration by gavage. Mice were separated into two groups, a control group receiving 240 mg of LES formulation and a treatment group receiving 240 mg of LES formulation plus 8 µCi of ^3H-lunasin (SibTech, Inc. Brookfield, CT, USA) in 0.1 mL of 10% sucrose solution. Four mice of each group were sacrificed at 3, 6, 9, 12 and 24 hrs after oral administration. The tissue samples were collected and prepared for scintillation counting by solubilizing in TS-2 tissue solubilizer (Research Products International Corp., Chicago, IL, USA) and addition of 15% benzoyl peroxide. Each sample was read in 5 ml of HionicFluor cocktail mix using a 1600TR liquid scintillation counter (Packard Inst. Meriden CT, USA).
Supplementary file pone.0008890.s001.tif: Figure S1 Recovery of ^3H-lunasin dose (expressed in percentage) in (-▴-) total, (-•-) tissues, and (-o-) gastrointestinal contents of mice at 3, 6, 9, 12, and 24 hours post-gavage of lunasin-enriched soy (LES). […]

MDA-MB-231 tumors = assay: In situ TUNEL assay for apoptosis in xenograft tumor sections; type: in vivo, athymic NCr-nu/nu mice; conditions: lunasin 20 and 4 mg/kg (P = 0.0088, 0.0141 vs control), BBI 20 mg/kg i.p.
Method: In situ terminal deoxynucleotidyl transferase-mediated dUTP nick end labeling (TUNEL) assay was performed using ApopTag Detection Kit (Millipore, USA & Canada) and ran based on the manufacturer's protocol. Briefly, deparaffinized and rehydrated sections were pretreated with 20 µg/mL proteinase K for 15 min and incubated with terminal transferase and digoxigenin dUTP at 37°C for 1 h. After washing, sections were incubated with antidigoxigenin rhodamine (Millipore) and DAPI (Invitrogen), and slides were visualized by fluorescent microscopy (Axiophot 381). The apoptotic cells were calculated as percentage of positive cells over total number of cells counted in microscope at 400× magnification.

CC[C@H](C)[C@H](NC(=O)[C@H](CCCCN)NC(=O)[C@H](CCC(=O)O)NC(=O)[C@H](CCSC)NC(=O)[C@@H](NC(=O)[C@H](Cc1c[nH]cn1)NC(=O)[C@H](CCCCN)NC(=O)[C@H](CCC(=O)O)NC(=O)[C@H](CS)NC(=O)[C@@H]1CCCN1C(=O)[C@@H](NC(=O)[C@H](CC(C)C)NC(=O)[C@H](CC(N)=O)NC(=O)[C@@H](NC(=O)CNC(=O)[C@H](CCC(N)=O)NC(=O)[C@H](CC(C)C)NC(=O)[C@H](CCC(N)=O)NC(=O)[C@H](CCCCN)NC(=O)[C@H](CCCNC(=N)N)NC(=O)[C@H](CS)NC(=O)[C@H](CO)NC(=O)[C@H](CC(=O)O)NC(=O)[C@H](CCC(N)=O)NC(=O)[C@H](CCC(N)=O)NC(=O)[C@H](Cc1c[nH]cn1)NC(=O)[C@H](CCC(N)=O)NC(=O)[C@H](Cc1c[nH]c2ccccc12)NC(=O)[C@H](CCCCN)NC(=O)[C@@H](N)CO)C(C)C)[C@@H](C)O)[C@@H](C)CC)C(=O)N[C@@H](CCC(N)=O)C(=O)NCC(=O)N[C@@H](CCCNC(=N)N)C(=O)NCC(=O)N[C@@H](CC(=O)O)C(=O)N[C@@H](CC(=O)O)C(=O)N[C@@H](CC(=O)O)C(=O)N[C@@H](CC(=O)O)C(=O)N[C@@H](CC(=O)O)C(=O)N[C@@H](CC(=O)O)C(=O)N[C@@H](CC(=O)O)C(=O)N[C@@H](CC(=O)O)C(=O)N[C@@H](CC(=O)O)C(=O)O [lunasin]
lunasin more effective than BBI in foci formation inhibition on an equimolar basis ([1]; 100 nM each): 18% | reduction of foci formation ([1]; 100 nM peptide, 1.5 µg/ml DMBA, 6 weeks, n = 6): 73% | suppression of foci formation ([1]; 1 µM lunasin extracted from the liver of LES-fed rats, n = 6): as effectively as an equimolar amount of synthetic lunasin | total oral dose of lunasin absorbed ([2]; 3 hrs post-gavage, 3H-labelled synthetic lunasin (8 µCi) mixed with 240 mg LES, CD-1 mice fasted 8 hrs, scintillation counting of tissues): approximately 30% | crossing of the blood-brain barrier ([2]; oral gavage of 3H-lunasin with LES, CD-1 mice, 3H radioactivity in brain): able to cross the blood-brain barrier | TUNEL-positive apoptotic cells in tumors (MDA-MB-231 tumors): significantly increased apoptosis
